Source: paper PMC4389228, “Ainsliadimer A selectively inhibits IKKα/β by covalently binding a conserved cysteine” (Nature Communications, 2015)

Columns and labels:
IKKα = target: T1, IKKα (Homo sapiens, UniProt O15111); experiment: direct biotin labelling of purified protein, streptavidin pull-down and blot; format: binding
T1 construct: gene CHUK; purified Flag-IKKα
T1 sequence (O15111 1-745): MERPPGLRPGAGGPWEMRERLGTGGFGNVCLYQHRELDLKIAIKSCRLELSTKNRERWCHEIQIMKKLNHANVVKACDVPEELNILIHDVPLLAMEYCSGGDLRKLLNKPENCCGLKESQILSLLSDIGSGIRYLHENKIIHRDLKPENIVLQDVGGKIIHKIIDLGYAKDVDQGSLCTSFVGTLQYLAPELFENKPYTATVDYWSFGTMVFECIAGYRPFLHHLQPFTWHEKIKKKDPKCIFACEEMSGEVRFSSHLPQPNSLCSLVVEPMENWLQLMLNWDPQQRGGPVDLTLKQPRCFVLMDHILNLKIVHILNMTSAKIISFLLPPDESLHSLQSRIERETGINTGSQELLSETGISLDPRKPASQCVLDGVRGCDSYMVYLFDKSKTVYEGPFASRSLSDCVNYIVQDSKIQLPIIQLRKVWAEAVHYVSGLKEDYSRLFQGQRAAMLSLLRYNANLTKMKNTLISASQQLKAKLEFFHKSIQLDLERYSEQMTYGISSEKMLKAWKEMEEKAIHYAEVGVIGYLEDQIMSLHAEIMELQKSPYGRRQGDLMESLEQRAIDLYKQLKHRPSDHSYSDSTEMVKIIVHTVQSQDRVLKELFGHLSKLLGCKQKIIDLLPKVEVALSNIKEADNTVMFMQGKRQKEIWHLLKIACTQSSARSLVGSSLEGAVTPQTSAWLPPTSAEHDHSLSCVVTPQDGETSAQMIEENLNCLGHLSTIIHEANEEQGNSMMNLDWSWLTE

IKKβ = target: T2, IKKβ (Homo sapiens, UniProt O14920); experiment: direct biotin labelling of purified protein, streptavidin pull-down and blot, competed by ainsliadimer A; time-dependent binding
T2 construct: gene IKBKB; purified Flag-IKKβ
T2 sequence (O14920 1-756): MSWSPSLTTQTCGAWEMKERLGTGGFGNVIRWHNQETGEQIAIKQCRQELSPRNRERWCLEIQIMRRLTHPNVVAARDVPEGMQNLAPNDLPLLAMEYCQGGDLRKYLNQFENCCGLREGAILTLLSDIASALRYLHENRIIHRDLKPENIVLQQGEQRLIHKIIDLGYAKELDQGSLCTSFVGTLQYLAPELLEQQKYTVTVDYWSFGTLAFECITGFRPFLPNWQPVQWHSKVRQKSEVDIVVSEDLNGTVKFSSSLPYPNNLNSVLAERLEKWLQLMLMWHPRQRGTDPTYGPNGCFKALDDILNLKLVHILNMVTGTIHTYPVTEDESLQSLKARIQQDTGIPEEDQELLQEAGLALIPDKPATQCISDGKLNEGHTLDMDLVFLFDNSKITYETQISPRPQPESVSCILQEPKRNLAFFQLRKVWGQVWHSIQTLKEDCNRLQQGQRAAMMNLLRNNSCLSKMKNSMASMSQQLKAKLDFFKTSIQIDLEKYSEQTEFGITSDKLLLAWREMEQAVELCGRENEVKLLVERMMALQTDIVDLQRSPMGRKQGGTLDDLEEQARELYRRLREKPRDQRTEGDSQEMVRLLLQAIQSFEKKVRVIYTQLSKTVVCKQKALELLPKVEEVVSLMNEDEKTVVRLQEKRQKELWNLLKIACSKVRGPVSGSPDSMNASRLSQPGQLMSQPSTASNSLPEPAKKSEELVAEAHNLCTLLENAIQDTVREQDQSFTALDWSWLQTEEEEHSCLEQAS

C=C1C(=O)O[C@@H]2[C@@H]3[C@@H](C[C@H](OC(=O)CCOCCOCCOCCNC(=O)CCCC[C@@H]4SC[C@@H]5NC(=O)N[C@@H]54)[C@]34CC[C@]3(O)[C@@H]5[C@H]6OC(=O)C(=C)[C@@H]6CCC(=C)[C@@H]5C[C@]43O)C(=C)CC[C@@H]12 [Probe]
direct biotin labelling of purified protein, streptavidin pull-down and blot (IKKα): suggesting that there is a strong interaction between Probe and recombinant IKKα | direct biotin labelling of purified protein, streptavidin pull-down and blot, co (IKKβ): we also observed a similar interaction pattern between Probe and recombinant IKKβ (Fig. 4d)
